Data taken from patent US20170350889A1, “CELL IDENTIFICATION METHOD” (Centre National De La Recherche Scientifique (CNRS), priority 2014, published 2017).

Test system: macaques
Assay: Replication of the SIV virus expressing Cre recombinase after infection in macaques (viral RNA in plasma)
Type: in vivo
Settings: one macaque infected, FIG. 17
Text: FIG. 17 is a graph showing the replication of the SIV virus expressing Cre recombinase evaluated by the number of copies of viral RNA/ml of plasma (y-axis) after infection in macaques, as a function of time (in days).
The dose and the route of infection are able to be modified as a function of the scientific aims of the experimentation. A method is briefly described below: • Infect the macaques intravenously (50 AID50) or mucosally (50-5000 AID50). • Monitor the viral load in kinetic conditions by quantification of the viral RNAs in the plasma of the infected animals.

SIVmac239-Nef-IRES-Cre: SIVmac239 virus expressing Cre recombinase via Nef-IRES-Cre (SEQ ID NO: 25; plasmid SEQ ID NO: 13)
replication dynamics (copies of viral RNA/ml of plasma over time): normal replication dynamics
